Test results from patent publication US20250127937A1, “FAP INHIBITOR” (UNIVERSITÄT HEIDELBERG, priority 2018, published 2025).

Columns and labels:
[1] = test system: tumor lesions and normal tissue of cancer patients; test: Clinical PET/CT imaging in cancer patients (SUV); type: in vivo, human
Protocol: Diagnostic imaging of more than 100 patients was performed under the conditions of the updated declaration of Helsinki, § 37 (Unproven interventions in clinical practice) and in accordance to the German Pharmaceuticals Law § 13 (2b) for medical reasons using either ^68Ga-FAPI-02 or -04, which was applied intravenously (20 nmol, 122-336 MBq), 10 min, 1 and 3 hours post tracer administration. Variation of injected radiotracer activity is due to the short half-life of ^68Ga and the variable elution efficiencies obtained during the lifetime of the ^68Ge/^68Ga generator. […] The PET/CT scans were performed with a Biograph mCT Flow™ PET/CT-Scanner (Siemens Medical Solution) using the following parameters: slice thickness of 5 mm, increment of 3-4 mm, soft-tissue reconstruction kernel, care dose. Immediately after CT scanning, a whole-body PET was acquired in 3D (matrix 200×200) in FlowMotion™ with 0.7 cm/min. The emission data were corrected for random, scatter and decay. Reconstruction was conducted with an ordered subset expectation maximisation (OSEM) algorithm with 2 iterations/21 subsets and Gauss-filtered to a transaxial resolution of 5 mm at full-width half-maximum (FWHM). Attenuation correction was performed using the low-dose non-enhanced CT data. The quantitative assessment of standardized uptake values (SUV) was done using a region of interest technique.
For the normal tissue of 16 organs, a 2 cm Spheric-VOI was placed in the parenchyma, for tumor lesions a threshold segmented VOI was used to quantify SUVmean/max^3.

human FAP-α = human FAP-α (Homo sapiens (Human), UniProt Q12884); test: Competitive binding of radiolabeled compound to HT-1080-FAP cells against unlabeled compound; details: radiolabeled FAPI-01 (I-125) / FAPI-02 (Lu-177), HT-1080-FAP cells, 60 min; read-out: IC50 human FAP-α
human FAP-α, sequence (Q12884 whole entry): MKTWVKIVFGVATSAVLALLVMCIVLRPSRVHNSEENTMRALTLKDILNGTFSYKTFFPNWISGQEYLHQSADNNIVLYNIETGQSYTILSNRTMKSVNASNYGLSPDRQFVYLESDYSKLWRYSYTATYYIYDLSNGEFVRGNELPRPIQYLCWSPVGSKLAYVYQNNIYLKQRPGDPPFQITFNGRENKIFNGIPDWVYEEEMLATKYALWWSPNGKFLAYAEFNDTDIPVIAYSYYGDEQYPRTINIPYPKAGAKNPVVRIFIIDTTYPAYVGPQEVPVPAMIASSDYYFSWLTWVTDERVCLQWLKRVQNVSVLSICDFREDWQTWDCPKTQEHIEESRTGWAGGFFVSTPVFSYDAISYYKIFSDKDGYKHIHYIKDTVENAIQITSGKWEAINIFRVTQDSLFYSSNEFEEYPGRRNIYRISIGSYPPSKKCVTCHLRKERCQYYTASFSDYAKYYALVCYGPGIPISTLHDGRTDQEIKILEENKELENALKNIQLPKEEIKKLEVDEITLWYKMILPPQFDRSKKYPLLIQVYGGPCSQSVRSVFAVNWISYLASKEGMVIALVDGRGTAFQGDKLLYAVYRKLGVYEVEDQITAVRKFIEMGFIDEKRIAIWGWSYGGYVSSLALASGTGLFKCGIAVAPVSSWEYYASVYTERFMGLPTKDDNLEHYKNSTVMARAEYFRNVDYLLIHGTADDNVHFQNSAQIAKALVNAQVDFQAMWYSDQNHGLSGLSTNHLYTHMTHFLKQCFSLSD
Protocol: Competition experiments were performed by simultaneous exposure to unlabeled (10^−5 M to 10^−9M) and radiolabeled compound for 60 min. […] For internalization experiments, surface bound activity was removed by incubating the cells with 1 M glycine-HCl buffer for 10 min. The radioactivity was measured using a γ-counter, normalized to 1 mio cells and calculated as percentage of applied dose (% ID).
The medium was replaced by 1 mL fresh medium without fetal calf serum. […] Competition experiments were performed by simultaneous exposure to unlabeled (10^−5 M to 10^−9 M) and radiolabeled compound for 60 min. […] In all experiments, the cells were washed with 1 mL phosphate-buffered saline pH 7.4 for 2 times and subsequently lysed with 1.4 ml lysis buffer (0.3 M NaOH, 0.2% SDS). Radioactivity was determined in a γ-counter (Cobra II, Packard), normalized to 1 mio cells and calculated as percentage of the applied dose (% ID). Each experiment was performed 3 times, and 3 repetitions per independent experiment were acquired.

Capan-2 tumor xenografts = test: Dynamic small-animal PET, two-tissue compartment model, Capan-2 xenografts; type: in vivo, mouse; details: 68Ga-FAPI-02, Capan-2, − comp.
Protocol: For in vivo experiments, 8 week old BALB/c nu/nu mice (Charles River) were subcutaneously inoculated into the right trunk with 5×10^6 with HT-1080-FAP, Capan-2 or SK-LMS-1 cells, respectively. When the size of the tumor reached approximately 1 cm^3, the radiolabeled compound was injected via the tail vein (˜10 MBq for small-animal PET imaging; ˜1 MBq for organ distribution). PET imaging was performed up to 140 min after intravenous injection of 1 MBq of Ga-68 labeled compound per mouse using the Inveon PET small-animal PET scanner (Siemens). Images were reconstructed iteratively using the 3D-OSEM+MAP method and were converted to standardized uptake value (SUV) images. Quantification was done using a ROI technique and expressed as SUV mean. For organ distribution of Lu-177 labeled compound (approx. […] per mouse), the animals (n=3 for each time point) were sacrificed after indicated time points (from 30 min to 24 h). The distributed radioactivity was measured in all dissected organs and in blood using a γ-counter (Cobra Autogamma, Packard). The values are expressed as percentage of injected dose per gram of tissue (% ID/g).
For pharmakokinetic modeling the transport constant K1 and the rate constants k2-k4 were calculated using a two-tissue compartment model implemented in the PMOD software, taking into account the vascular fraction (vB), which is associated with the volume of blood exchanging with tissue in a VOI. The rate constants that describe the compartmental fluxes include k1 (binding to the receptor), k2 (detachment) as well as k3 (internalization) and k4 (efflux) in the tumor tissue. In this model the fractional volume of distribution (DV=K1/k2) is the proportion of the region of interest in which […] is distributed.

[2] = 1 h p.i., intra-individual comparison of 6 patients

`N#C[C@@H]1CCCN1C(=O)CNC(=O)c1ccnc2ccc(OCCCN3CCN(C(=O)CN4CCN(CC(=O)O)CCN(CC(=O)O)CCN(CC(=O)O)CC4)CC3)cc12` [FAPI-02] was tested, and the “maximum SUV values in primary tumor, lymph node and bone metastases” value ([1]; 68Ga labeled, 1 h after i.v. administration, patients) was no more than 48.0, the “background uptake in brain” value [1, 2] was 0.32 and the “background uptake in liver” value [1, 2] was 1.69. The “background uptake in oral/pharyngeal mucosa” value [1, 2] was 2.57, the “tumor uptake, average SUV max” value [1, 2] was 7.37 and the “decrease of tumor uptake (washout)” value ([1]; from 1 h to 3 h p.i., patients) was 75%. For the same molecule, the IC50 (human FAP-α) was 21 nM, the Flux (Capan-2 tumor xenografts) was 0.03 ml/ccm/min and the “Vs (ratio of specific binding concentration to total parent at equilibrium)” value (Capan-2 tumor xenografts) was 0.93 ml/ccm. The “Vt (total distribution volume)” value (Capan-2 tumor xenografts) was 1.44 ml/ccm, the k1 (Capan-2 tumor xenografts) was 0.08 ml/ccm/min and the k2 (Capan-2 tumor xenografts) was 0.16 min⁻¹. For the same molecule, the k3 (Capan-2 tumor xenografts) was 0.08 min⁻¹, the k4 (Capan-2 tumor xenografts) was 0.05 min⁻¹ and the “vB (vascular fraction)” value (Capan-2 tumor xenografts) was 0.08 l/l.
